# In patent US10508088B2, “Methods using HDAC11 inhibitors” (FORMA Therapeutics, Inc., priority 2016, dated 2019):
# Target: Recombinant N-terminal GST tag full-length human HDAC11 (Homo sapiens (Human), UniProt Q96DB2)
# Assay: Probe binding HDAC11 assay, time resolved fluorescence (TRF)
# Details: read-out: HDAC11 IC50 Range
# Description: The probe binding HDAC11 assay was performed using a time resolved fluorescence (TRF) assay format. Recombinant N-terminal GST tag full-length human HDAC11 was expressed and purified from baculovirus in Sf9 insect cells (SignalChem, # H93-30G-1000). Each assay was performed in 1536 black well microplates (Corning, #3936) in a final volume of 8 μL in assay buffer containing 50 mM HEPES (pH 7.5), 50 mM KCl, 50 mM NaCl, 0.5 mM GSH (L-Glutathione reduced, Sigma #G4251), 0.03% BGG (0.22 μM filtered, Sigma, #G7516-25G), and 0.01% Triton X-100 (Sigma, #T9284-10L). 100 nL of 10-point, 3-fold serial dilution in DMSO was pre-dispensed into respective wells of 1536 assay plates for a final test concentration range of 25 μM to 1.3 nM respectively. The final concentration in the assay of HDAC11 and probe (a fluorescein labeled HDAC 11 inhibitor) was 2.5 nM and 20 nM respectively. 4 μL of 2× probe and 2× anti-GST Terbium (Cisbio, #61GSTXLB) was added to assay plates followed by 4 μL of 2×HDAC11. Plates were incubated for 16 hours at room temperature before time resolved fluorescence was read on the Envision (Excitation at 340 nm, and Emission at 485 nm and 535 nm, Perkin Elmer).
# Data from HDAC11 Assays were reported as percent inhibition (inh) compared with control wells based on the following equation: % inh=1−((FLU−AveLow)/(AveHigh−AveLow)) where FLU=measured time resolved fluorescence. AveLow=average time resolved fluorescence of no enzyme control (n=32). AveHigh=average time resolved fluorescence of DMSO control (n=32). IC50 values were determined by curve fitting of the standard 4 parameter logistic fitting algorithm included in the Activity Base software package: IDBS XE Designer Model205. Data is fitted using the Levenburg Marquardt algorithm.
# Recombinant N-terminal GST tag full-length human HDAC11, sequence (Q96DB2 whole entry): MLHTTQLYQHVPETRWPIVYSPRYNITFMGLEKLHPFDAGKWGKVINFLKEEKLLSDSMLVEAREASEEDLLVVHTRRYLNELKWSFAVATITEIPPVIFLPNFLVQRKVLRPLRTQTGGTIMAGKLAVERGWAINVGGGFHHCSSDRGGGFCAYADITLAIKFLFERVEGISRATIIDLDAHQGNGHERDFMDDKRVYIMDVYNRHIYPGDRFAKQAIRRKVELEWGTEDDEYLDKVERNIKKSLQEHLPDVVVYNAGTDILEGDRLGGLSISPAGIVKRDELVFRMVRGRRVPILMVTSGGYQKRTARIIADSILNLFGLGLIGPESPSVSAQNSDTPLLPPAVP
row,Compound,IC50
1,"O=C(NO)c1cccc(Nc2nc3cc(C(F)(F)F)c(-c4ccc5ncccc5c4)cc3[nH]2)c1 [Example 36-8, N-hydroxy-3-((6-(quinolin-6-yl)-5-(trifluoromethyl)-1H-benzo[d]imidazol-2-yl)amino)benzamide]",< 500 nM
2,"NCCCCCn1c(Nc2cccc(C(=O)NO)c2)nc2cc(Cl)c(Cl)cc21 [Example 22-1, 3-((1-(5-aminopentyl)-5,6-dichloro-1H-benzo[d]imidazol-2-yl)amino)-N-hydroxybenzamide]",< 500 nM
3,"COCCN(c1cccc(C(=O)NO)c1)c1nc2ccccc2[nH]1 [Example 25-1, 3-((1H-benzo[d]imidazol-2-yl)(2-methoxyethyl)amino)-N-hydroxybenzamide]",> 1000 nM
4,"COc1cc2nc(Nc3cccc(C(=O)NO)c3)[nH]c2cc1OC [Example 33-13, 3-((5,6-dimethoxy-1H-benzo[d]imidazol-2-yl)amino)-N-hydroxybenzamide]",> 1000 nM
5,"N#Cc1cc2nc(Oc3cccc(C(=O)NO)c3)[nH]c2cc1C(F)(F)F [Example 26-1, 3-((5-cyano-6-(trifluoromethyl)-1H-benzo[d]imidazol-2-yl)oxy)-N-hydroxybenzamide]",> 1000 nM
6,"COc1cc2nc(Nc3cccc(C(=O)NO)c3)[nH]c2cc1Cl [Example 33-19, 3-((6-chloro-5-methoxy-1H-benzo[d]imidazol-2-yl)amino)-N-hydroxybenzamide]",500 to 1000 nM
7,"NCCCCCn1c(Nc2cccc(C(=O)NO)c2)nc2cc(Cl)c(F)cc21 [Example 22-2, 3-((1-(5-aminopentyl)-5-chloro-6-fluoro-1H-benzo[d]imidazol-2-yl)amino)-N-hydroxybenzamide]",< 500 nM
8,"N#Cc1cc2nc(Nc3cccc(C(=O)NO)c3)n(CCCCCN)c2cc1C(F)(F)F [Example 21-1, 3-((1-(5-aminopentyl)-5-cyano-6-(trifluoromethyl)-1H-benzo[d]imidazol-2-yl)amino)-N-hydroxybenzamide]",< 500 nM
9,"Cc1cc2[nH]c(Nc3cccc(C(=O)NO)c3)nc2cc1Br [Example 33-12, 3-((5-bromo-6-methyl-1H-benzo[d]imidazol-2-yl)amino)-N-hydroxybenzamide]",< 500 nM
10,"O=C(NO)c1cccc(Cc2nc3cc(Cl)c(Cl)cc3[nH]2)c1 [Example 27-2, 3-((5,6-dichloro-1H-benzo[d]imidazol-2-yl)methyl)-N-hydroxybenzamide]",< 500 nM
11,"CC(C)n1c(Nc2cccc(C(=O)NO)c2)nc2cc(-c3ccccc3)c(C(F)(F)F)cc21 [Example 16-2, N-hydroxy-3-((1-isopropyl-5-phenyl-6-(trifluoromethyl)-1H-benzo[d]imidazol-2-yl)amino)benzamide]",< 500 nM
12,"CN(c1cccc(C(=O)NO)c1)c1nc2cc(C(F)(F)F)c(-c3cccnc3)cc2n1C [Example 34-2, N-hydroxy-3-(methyl(1-methyl-6-(pyridin-3-yl)-5-(trifluoromethyl)-1H-benzo[d]imidazol-2-yl)amino)benzamide]",> 1000 nM
13,"CS(=O)(=O)c1cc2nc(Nc3cccc(C(=O)NO)c3)[nH]c2cc1C(F)(F)F [Example 7-1, N-hydroxy-3-(6-(methylsulfonyl)-5-(trifluoromethyl)-1H-benzo[d]imidazol-2-ylamino)benzamide]",< 500 nM
14,"O=C(NO)c1cccc(Nc2nc3cc(C(F)(F)F)c(-c4cnc(N5CCOCC5)nc4)cc3[nH]2)c1 [Example 36-13, N-hydroxy-3-((6-(2-morpholinopyrimidin-5-yl)-5-(trifluoromethyl)-1H-benzo[d]imidazol-2-yl)amino)benzamide]",< 500 nM
15,"O=C(NO)c1cccc(Nc2nc3cc(Br)c(C(F)(F)F)cc3[nH]2)c1 [Example 33-11, 3-((5-bromo-6-(trifluoromethyl)-1H-benzo[d]imidazol-2-yl)amino)-N-hydroxybenzamide]",< 500 nM
16,"Cn1c(Nc2cccc(C(=O)NO)c2)nc2cc(C(F)(F)F)c(-c3ccccc3)cc21 [Example 35-3, N-hydroxy-3-((1-methyl-6-phenyl-5-(trifluoromethyl)-1H-benzo[d]imidazol-2-yl)amino)benzamide]",< 500 nM
17,"CC(C)n1c(Nc2cccc(C(=O)NO)c2)nc2cc(C(F)(F)F)c(C#N)cc21 [Example 14-1, 3-(6-cyano-1-isopropyl-5-(trifluoromethyl)-1H-benzo[d]imidazol-2-ylamino)-N-hydroxybenzamide]",< 500 nM
18,"CN(C)C(=O)c1cccc(-c2cc3[nH]c(Nc4cccc(C(=O)NO)c4)nc3cc2C(F)(F)F)c1 [Example 36-18, 3-(2-((3-(hydroxycarbamoyl)phenyl)amino)-5-(trifluoromethyl)-1H-benzo[d]imidazol-6-yl)-N,N-dimethylbenzamide]",< 500 nM
19,"COCCn1c(Nc2cccc(C(=O)NO)c2)nc2cc(C(F)(F)F)c(-c3ccccc3)cc21 [Example 20-1, N-hydroxy-3-(1-(2-methoxyethyl)-6-phenyl-5-(trifluoromethyl)-1H-benzo[d]imidazol-2-ylamino)benzamide]",< 500 nM
20,"O=C(NO)c1cccc(Nc2nc3cc(Cl)ccc3[nH]2)c1 [Example 33-20, 3-((5-chloro-1H-benzo[d]imidazol-2-yl)amino)-N-hydroxybenzamide]",> 1000 nM
21,"N#Cc1cc2oc(Nc3cccc(C(=O)NO)c3)nc2cc1C(F)(F)F [Example 2-1, 3-(6-cyano-5-(trifluoromethyl)benzo[d]oxazol-2-ylamino)-N-hydroxybenzamide]",< 500 nM
22,"Cn1c(Nc2cccc(C(=O)NO)c2)nc2cc(F)c(C#N)cc21 [Example 12-1, 3-(6-cyano-5-fluoro-1-methyl-1H-benzo[d]imidazol-2-ylamino)-N-hydroxybenzamide]",< 500 nM
23,"CCOc1cccc(-c2cc3[nH]c(Nc4cccc(C(=O)NO)c4)nc3cc2C(F)(F)F)c1 [Example 36-4, 3-((6-(3-ethoxyphenyl)-5-(trifluoromethyl)-1H-benzo[d]imidazol-2-yl)amino)-N-hydroxybenzamide]",< 500 nM
24,"Cc1cc2[nH]c(Nc3cccc(C(=O)NO)c3)nc2cc1F [Example 33-10, 3-((5-fluoro-6-methyl-1H-benzo[d]imidazol-2-yl)amino)-N-hydroxybenzamide]",< 500 nM
25,"COCCn1c(Nc2cccc(C(=O)NO)c2)nc2cccc(OC)c21 [Example 24-2, N-hydroxy-3-((7-methoxy-1-(2-methoxyethyl)-1H-benzo[d]imidazol-2-yl)amino)benzamide]",> 1000 nM
26,"Cn1c(Nc2cccc(C(=O)NO)c2)nc2cc(C#N)c(C(F)(F)F)cc21 [Example 10-1, 3-(5-cyano-1-methyl-6-(trifluoromethyl)-1H-benzo[d]imidazol-2-ylamino)-N-hydroxybenzamide]",< 500 nM
27,"COCCn1c(Nc2cc(C(=O)NO)c3ccccc3c2)nc2ccccc21 [Example 23-3, N-hydroxy-3-((1-(2-methoxyethyl)-1H-benzo[d]imidazol-2-yl)amino)-1-naphthamide]",> 1000 nM

# Target: Full length human recombinant HDAC11 (Homo sapiens (Human), UniProt Q96DB2)
# Assay: Enzymatic HDAC11 assay, electrophoretic mobility shift
# Format: biochemical
# Details: substrate FAM-RHKK(tri-fluor-Ac)-NH2, read-out: HDAC11 IC50 Range
# Description: The enzymatic HDAC11 assay was performed using electrophoretic mobility shift assay. Full length human recombinant HDAC11 protein was expressed in baculoviral system and purified by affinity chromatography. The enzymatic reactions were assembled in 384 well plates in a total volume of 25 μL in a reaction buffer composing: 100 mM HEPES, pH 7.5, 25 mM KCl, 0.1% bovine serum albumin, 0.01% Triton X-100, 1% DMSO (from compounds) 2 μM of the fluorescently labeled peptide substrate and enzyme. The enzyme was added at a final concentration of 10 nM. The peptide substrate FAM-RHKK(tri-fluor-Ac)-NH2 was used. The compounds were tested at 12 concentrations spaced by 3× dilution intervals. Negative control samples (0%-inhibition in the absence of inhibitor) and positive control samples (100%-inhibition) were assembled in replicates of four in each assay plate. The reactions were incubated at 25° C. and quenched by the addition of 45 μL of termination buffer (100 mM HEPES, pH 7.5, 0.01% Triton X-100, 0.05% SDS).
# The terminated assay plates were analyzed on LabChip® 3000 microfluidic electrophoresis instrument (Perkin Elmer/Caliper Life Sciences). The fluorescence intensity of the electrophoretically separated de-acetylated product and substrate peptide was measured. Activity in each sample was determined as the product to sum ratio (PSR):P/(S+P), where P is the peak height of the product peptide and S is the peak height of the substrate peptide. Percent inhibition (Pinh) is determined using the following equation: Pinh=(PSR0%−PSRinh)/(PSR0%−PSR100%)*100,
# where PSRinh is the product sum ratio in the presence of inhibitor, PSR0% is the average product sum ration in the absence of inhibitor and PSR100% is the average product sum ratio in 100%-inhibition control samples. The IC50 values of inhibitors were determined by fitting the percent inhibition curves with 4 parameter dose-response model using XLfit 4 software.
# Full length human recombinant HDAC11, sequence (Q96DB2 whole entry): as above
row,Compound,IC50
1,"O=C(NO)c1cccc2c1CC1(CC2)CCN(Cc2ccc(C(F)(F)F)c(F)c2)C1=O (centres unmarked) [II-68, 1′-(3-fluoro-4-(trifluoromethyl)benzyl)-N-hydroxy-2′-oxo-3,4-dihydro-1H-spiro[naphthalene-2,3′-pyrrolidine]-8-carboxamide]",< 500 nM
2,"O=C(NO)c1cccc2c1CC1(CC2)CCN(c2cccc(C(F)(F)F)c2)C1=O (centres unmarked) [II-72, N-hydroxy-2′-oxo-1′-(3-(trifluoromethyl)phenyl)-3,4-dihydro-1H-spiro[naphthalene-2,3′-pyrrolidine]-8-carboxamide]",> 1000 nM
